Source: patent US20010055755A1, “Dendritic marker-expressing macrophage cultures and methods for reactivating latent HCMV” (priority 1997, published 2001)

Tested on: HCMV
Experiment: HCMV infection of monocyte-derived dendritic cells with cytokine treatment
Format: cell-based
Conditions: up to day 12 post stimulation, compared with unstimulated cells
Protocol: PBMC were isolated as described above and plated onto primaria plates for monocyte adherence. After two hours of culture, non-adherent cells were removed by three washes in serum free medium and adherent cells were stimulated with I1-4 (1000 U/ml) and GM-CSF (50 ng/ml) as previously described (Sallusto et al., J. Exp. Med. 179:1109-1118 (1994)). Immature dendritic cells cultured in RPMI medium containing 1% sodium pyruvate were developed during the first 12 days of culture. Cell samples were collected at 12 days for flow cytometric analysis to determine the expression of dendritic and macrophage markers. Small, round dendritic cells were stimulated with […] (10 ng/ml) and IFN-γ (500 U/ml) for two days. Thereafter, the mature, adherent dendritic cells were challenged with HCMV at a MOI of 10 or mock infected as described herein.
PBMC were cultured under standard conditions with IL-4 and GM-CSF to yield monocyte-derived dendritic cells (see, e.g., Annals Surg. 226:1-5 (1997)). The dendritic cells were infected in vitro under the conditions described herein with HCMV. […] Viral growth is measured as described with antibodies against viral proteins IE and gB. Viral growth is measured at days 1, 3, 8, 12, and 20 post infection.

## IFN-γ: cytokine used at 500 U/ml to stimulate dendritic cells
  viral expression in MDDC after additional stimulation: did not increase viral expression
